The test system of data set [1] is mouse native tissue layer V medial prefrontal cortex (mPFC). The data set can be described thus: electrophysiology (fEPSP, LTD) in layer V medial prefrontal cortex. The conditions noted are these: 10 μM. An excerpt: Based on our previous experience, ,− , PAM 7 is expected to display robust pro-cognitive efficacy and maintain activity dependence of prefrontal cortical (PFC) function.

Data set [2] is described as follows: plasma protein binding, equilibrium dialysis (cyno). In kind it is in vitro ADME. The note with it: cynomolgus monkey, pH 7.4, cyno (c), read-out: fu,plasma. How it is done: (§1) Plasma protein binding and Brain homogenate binding: Determination of fraction unbound (f u) in plasma was conducted in vitro via equilibrium dialysis using HTDialysis (HTD) membrane plates. The top half of the plate was filled with 100 uL of Dubelco’s Phosphate Buffered Saline, pH 7.4 (DPBS). Compounds were diluted into plasma from each species (5 µM final concentration), which was aliquoted in triplicate to the ‘bottom half’ of the prepared HTD plate wells. The HTD plate was sealed and incubated for 6 hours at 37 °C. Following incubation, each well (both top and bottom halves) were transferred (20 µL) to the corresponding wells of a 96-shallow-well (V-bottom) plate. […]
(§2) The unbound fraction (f u) was calculated following the equation below, and mean values for each species were calculated from 3 replicates.
(§3) A similar approach was used to determine the degree of brain homogenate binding, which employed the same methodology and procedure with the following modifications: 1) a final compound concentration of 1 μM was used, 2) naïve rat brains were homogenized in DPBS (1:3 composition of brain: DPBS, w/w) using a Mini-Bead Beater™ machine in order to obtain brain homogenate, which was then treated in the same manner as the plasma samples in the previously described plasma protein binding assay. Fraction unbound for both plasma and brain samples was determined using Equation 4. […]
In general terms: In equilibrium dialysis free small molecules cross a membrane that holds back macromolecules.

A short description of data set [3]: plasma protein binding, equilibrium dialysis (human). The conditions noted are these: pH 7.4, read-out: fu,plasma. In kind it is in vitro ADME. The procedure:
as §1, §2, §3

The nature of data set [4]: brain to plasma ratio (rat). It counts as in vivo. How it is done:
covered in Principles of Laboratory Animal Care (National Institutes of Health). All rats were fasted overnight prior to testing.
For determination of the brain over plasma ratio (Kp), compounds were formulated in 8% ethanol, 32% PEG400 and 60% DMSO (v/v/v) and administered as a single 0.2 mg/kg IV dose (1 mL/kg) to male, Sprague Dawley rats (n = 1) via injection into a surgically-implanted jugular vein catheter. At 15 min post dosing, blood sample was collected into chilled, K2EDTA anticoagulant-fortified tube and immediately placed on wet ice. The blood sample was then centrifuged (1700 rcf, 5 minutes, 4 °C) to obtain plasma sample. At the same post-administration time point, whole brain sample was obtained by rapid dissection, rinsed with PBS, and immediately frozen in individual tissue collection box (dry ice). All brain and plasma samples were stored at -80 °C until […]
Sample Analysis: Concentrations in plasma and brain homogenates were quantified by liquid chromatography tandem mass spectrometry (LC-MS/MS). Whole brains were homogenized in 3 mL of 70:30 IPA:water in a mini bead beater for 3 min, and centrifuged at 3,500 g for 5 min. 5 uL of the supernatant was diluted in 15 uL of blank plasma for quantification of the analytes. Plasma samples were centrifuged at 3,500 g for 5 min. […]
Plasma and brain tissue samples originating from in vivo studies were analyzed by electrospray ionization using an AB Sciex Q-TRAP 5500 (Foster City, CA) that was coupled to a Shimadzu LC-20AD pump (Columbia, MD) and a Leap Technologies CTC PAL auto-sampler (Carrboro, NC). […]
min, with an isocratic hold for 0.5 min, before transitioning to 10% B over 0.05 min. […] All data were analyzed using AB Sciex Analyst 1.5.1 software.
Brain plasma concentration ratio (Kp) was calculated by dividing brain concentration by plasma concentration for each animal. Unbound brain to unbound plasma concentration ratio (Kp,uu) is calculated using the following formula: Kp,uu = (Brain ng/g x brain fu)/(plasma ng/ml x plasma fu). […]

As usually defined, the Kp is tissue or fluid exposure divided by exposure in the circulation.

Regarding `Cn1cc2c(-c3cc(F)c(CN4Cc5ncccc5C4=O)c(F)c3)ccc(C(C)(C)O)c2n1` [compound 7], the PPR in data set [1] amounted to 112%. For the same molecule, the “field excitatory postsynaptic potentials (fEPSPs), % baseline” value in data set [1] is on record as 86 % baseline. Besides, the fraction unbound at 6 h, 5 µM is 0.06 in data set [2] and 0.037 in data set [3]. Also, in data set [4] (brain:plasma), the Kp was 1.08. Also, in data set [4] (male, Sprague Dawley, brain and plasma, intravenous, 0.2 mg/kg, brain:plasma), the Kp at 15 min was 1.07. In data set [4] (male, Sprague Dawley, brain and plasma, intravenous, 0.2 mg/kg, unbound brain:unbound plasma), the Kp uu at 15 min was 1.27.
